The numbers were not newly measured in US20100331966A1, “BIOCORRODIBLE IMPLANT HAVING AN ACTIVE COATING” (priority 2009, published 2010), which cites them from elsewhere.

This data set has as its system hyperlipidemic rabbits.
Setting [1] is: hyperlipidemic rabbits, repeated administration.

As to “hyaluronate lyase [bacteria hyaluronate lyase]”, where the note is “rabbit, in vivo”, the plaque-loosening effect entry is listed as “confirmed”.

Turning to hyaluronidase, under setting [1], the atheromatous vascular plaque result is “significant decrease”, the blood cholesterol result is “lowering”, the fibrin content result is “lowering” and the “heparin content in the plasma” value is “increase”. Moreover, the “vascular permeability in the tissue” value under setting [1] was “increased”.
